Laboratory results published in patent US5254572A, “Method and composition for supplementing vitamin B6 where the PN-PLP pathway is disturbed” (priority 1989, dated 1993).
Values joined by “and” are separate entries in the source; they are usually repeats but may differ in a detail not shown here. Identical values can stand only once. “Also recorded” adds a separate entry of the source.

Experiments:
PN-oxidase deficiency = assay: Response of patients with reduced PN-oxidase activity; assay type: in vivo
[1] = test system: estrogen side effects (tryptophane metabolism); assay: Counteracting side effects of elevated estrogen (PMS, OC users); assay type: in vivo, patients
lipid metabolism = conditions: experimental animals; German patent application P37 05 549.6; cited from earlier work
Babesia canis [2] = assay: Example 4: clinical trials on dogs with B. canis infection; assay type: in vivo
Description: Babesia canis infection, better known as "biliary fever", is a severe and frequently fatal disease in dogs. It is a protozoal disease involving large-scale destruction of erythrocytes (red blood cells) and loss of haemoglobin. Double blind trials were carried out on two groups of dogs presented to the clinic for treatment of severe B. canis infections. Upon admission, all animals were recumbent with fever, jaundice, and accelerated heart and respiratory rate. All animals were given standard treatment, which consisted of post surgical drip, doxycycline, trypan blue, hepavet, electrolytes and glucose. In the experimental group, a solution of PL was added to the drip (electrolytes, glucose) given to the animals. In the control group, saline was given to replace the PL solution.
The PL solution according to the invention was made up as follows (per vial):
Experimental animals: PL solution according to the invention was given with the drip in such a manner that each patient received 50mg of pyridoxal over a 12 h period. Each animal received only one such course of treatment.
These received saline instead of PL solution under similar conditions. Control animals were selected to resemble experimental animals as closely as possible in respect of race and initial haemoglobin concentration.
**E: denotes experimental animals C: denotes controls, E: denotes changes
per day during the period between the first two series of measurements of
the parameters listed. Normally these represent measurements obtained
immediately after admission (or 1 day later) and again 2 to 4 days later
after treatment has been started.
***Average changes for six animals in each group over the two periods of […]

[3] = experimental animals or humans; cited from earlier work
[4] = test system: anemia / haemoglobin formation; assay: Treatment of anemias; assay type: in vivo, patients; conditions: cases where conventional therapy is ineffective, pyridoxine refractory anaemias
[5] = compared with PN; cited from earlier work
Babesia canis [6] = assay: Example 4: further clinical trials on dogs with B-canis infection; assay type: in vivo
Description: The experiment was repeated with 13 dogs (10 inbred beagles and 3 other mongrels) randomly divided into an experimental and a control group. All animals were infected with Babesia canis by injection of blood from a splenectomised donor dog which led to the development of acute Babesiosis in approximately 3-5 days. All dogs were monitored twice daily until the haematocrit values fell to 0.15 l/l when treatment was started which in the case of all animals consisted of the following:
Electrolytes solution (number 2) for the first […], thereafter Post-Surgisol. Both fluids were administered by means of an intravenous jugular catheter at a rate of 80 ml/kg/24h.
Trypan blue (1%) 1 ml/kg intravenous once only. Berenil 3.5 mg/kg intramuscularly 7 days after the Trypan blue. Heparin, 25 IU/kg subcutaneously three times per day for the first 2 days.
Experimental animals, in addition, received pyridoxal in their infusions at a concentration of 50 mg/l for the entire duration of fluid therapy.
Before the start of treatment, a urine dipstick and sediment examination were performed as well as a complete clinical evaluation and faecal flotation to determine the presence of helminth ova.
Assessment: Temperature pulse and respiration were measured every 6 hours during the first 3 days and a subjective assessment of habitus (grade 1-4) and appetite (1-4) was also made at the same time.
Full haematological and biochemical assessment was performed daily.
Serum alkaline phosphatase determinations were made on days 1 and 3.
Additional trial parameters and measurements consisted of Astrup determinations (before treatment and again 24 hours later) and a ten day survival rate.
Samples for haematology were drawn in evacuated EDTA tubes and for serum chemistries into plain evacuated tubes (cephalic vein).
Plasma PLP and PL as well as RBC-PLP and PL values were determined by means of a HPLC procedure routinely used for human studies.

[7] = Plasma PLP increment in critically ill patients on hyperalimentation and additional PN / alleviation of B6 depletion; assay type: in vivo
Description: A direct inverse correlation exists between the degree of B6 depletion of critically ill patients and their chances of survival. Medical and surgical complication such as shock, hepatic failure, infection and sepsis, wound dehiscence, incisional hernia, aminoglycoside induced renal failure and impaired skin and mucosal regeneration, hematopoiesis, hormone production and wound repair; multi-organ dysfunction, respiratory distress and also severe depression are substantially more frequent in B6 deficient patients. These conditions are, inter alia, causally related to impairment of immune function, collagen and elastin cross-linking and polyamine synthesis and accumulation. […] However, the correctness or otherwise of any explanations given or mechanisms postulated is not to limit the scope of the invention or to be relevant to the inventive merits of the invention as claimed.

fibroblast cell cultures = assay: Example 27: cellular uptake in fibroblast cell cultures, intracellular PLP content; assay type: cell-based
Description: Fibroblast cell cultures were cultivated in the usual manner in a medium containing different concentrations of various B6 vitamers, and the intracellular […] content was determined.
When the extracellular PL concentration was 60 nM, intracellular PLP levels reached a concentration of 12 nmol/g cell protein. […] Moreover, when both PN and PL were included in the medium, intracellular PLP accumulation was decreased in comparison with PLP accumulation seen when PL alone (in equimolecular concentrations)was included in the medium.

[8] = test system: E. Coli induced septic shock; assay: Protective effect in experimentally induced septic shock; assay type: in vivo, rats
Description: An E. Coli suspension was prepared and serially diluted to the point where an injection of 0.3 ml caused approximately 80% mortality in rats after 12 h. This solution was used as the challenging solution in the following experiment:
Two groups of 6 male rats each were used. The animals were carefully selected so that the average mass in both groups was 210 g (191-219 g in the control group; 194-224 g in the experimental group). A solution containing 43.8 mg/ml of pyridoxal was prepared for i/v and i/p injection. 0.8 ml of this solution afforded 1.0 m mol/kg of PL when injected into a 210 g rat.
At time 0 h, the control group received 0.3 ml saline and the experimental group 0.3 ml of the PL solution. After 1 h all animals in both groups were challenged with 0.3 ml i/v of the E. Coli suspension. Immediately thereafter, the control group received 0.5 ml saline and the experimental group 0.5 ml of the PL solution i/p.
Each entry represents 1 animal, 12 h denoting that the particular animal survived for the full observation period of 12 h. Other entries denote mortalities at the times indicated, e.g. 2 h inspection (all animals were inspected at 1 h intervals and mortalities counted).

albumin = conditions: plasma; cited from earlier work
[9] = man; cited from earlier work
[10] = test system: PNP-oxidase in bone marrow aspirate; assay: Conversion of pyridoxine by bone marrow aspirate (PNP-oxidase activity); assay type: cell-based; conditions: immature cells
Description: To confirm the inability of immature cells to convert pyridoxine into pyridoxal and its phosphate, an aspirate of bone marrow was tested.

[11] = test system: estrogen side effects (tryptophane metabolism); conditions: cited from earlier work
[12] = test system: glutamate-pyruvate-transaminase (GPT); assay: RBC GPT-activity before and after daily oral PN supplementation; assay type: in vivo, human; conditions: RBC GPT-activity at day 0 and day 28, daily oral PN (10 mg)
Description: The enzyme glutamate-pyruvate-transaminase (GPT) is a PLP dependent enzyme present in RBC which can be used to assess the utilisation of PN by RBC. In the population, individuals may be divided into 3 different groups corresponding to 3 polymorphic forms of the enzyme (1-1, 25%; 1-2, 50%; 2-2, 25%.

[13] = test system: anemia / haemoglobin formation; conditions: 50-200 mg PN/day, one case 600 mg/day; Merrill and Henderson; cited from earlier work
[14] = test system: PLP-phosphatases in red blood cells; assay: Inhibition of PLP-specific phosphatases of red blood cells; assay type: biochemical
[15] = average change for six experimental animals
[16] = change per day, individual animal, 50 mg pyridoxal over 12 h with drip
[17] = change per day, total of experimental group
[18] = patients destined to die, hyperalimentation and additional PN, even with 200mg/day

Cc1ncc(CO)c(C=O)c1O [PL, pyridoxal]
response compared with PN (PN-oxidase deficiency): respond much more satisfactorily | effectiveness / effective dosage rate against side effects of estrogen ([1]; supplementation, particularly over prolonged periods, compared with pyridoxine): effective at dosage rates as low as a few mg/day; also recorded: far more effective | lipid lowering effect (lipid metabolism): unexpectedly strong lipid lowering effects | Hb change, average (Babesia canis [2]; [15]): 11.7 g/L | MCHC change, average (Babesia canis [2]; [15]): -0.03 g/dlRC | MCV change, average (Babesia canis [2]; [15]): 0.17 fL | RCC change, average (Babesia canis [2]; [15]): 4.4e+11 L⁻¹ | WCC change, average (Babesia canis [2]; [15]): 4.52e+09 L⁻¹ | Hb (haemoglobin) change (Babesia canis [2]; [16]): 11.0 g/L and 12.8 g/L and 6.5 g/L and 9.5 g/L and 7.8 g/L and 24.8 g/L | MCHC (mean corpuscular haemoglobin content) change (Babesia canis [2]; [16]): 3.8 g/dlRC and -1 g/dlRC and -2.5 g/dlRC and -1.7 g/dlRC and -0.5 g/dlRC and 2.5 g/dlRC | MCV (mean corpuscular volume) change (Babesia canis [2]; [16]): -6 fL and 2 fL and 0 fL and 3 fL and 1 fL | RCC (red cell count) change (Babesia canis [2]; [16]): 4.1e+11 L⁻¹ and 4.9e+11 L⁻¹ and 4.7e+11 L⁻¹ and 2.3e+11 L⁻¹ and 6.4e+11 L⁻¹ | WCC (white cell count) change (Babesia canis [2]; [16]): 3e+09 L⁻¹ and -8.4e+09 L⁻¹ and 2.5e+09 L⁻¹ and 3.1e+09 L⁻¹ and 1.05e+09 L⁻¹ and 1.79e+10 L⁻¹ | Hb change, total (Babesia canis [2]; [17]): 70 g/L | MCHC change, total (Babesia canis [2]; [17]): -8.2 g/dlRC | MCV change, total (Babesia canis [2]; [17]): 1 fL | RCC change, total (Babesia canis [2]; [17]): 2.65e+12 L⁻¹ | WCC change, total (Babesia canis [2]; [17]): 2.715e+10 L⁻¹ | recovery of haemoglobin levels (Babesia canis [2]; experimental animals): amazing recovery of haemoglobin levels | haematological differences to control group (haemoglobin, RCC, WCC) (Babesia canis [2]; experimental vs control): Large, significant differences | adverse effects [3]: No adverse effects | stimulation of haemoglobin formation [4]: capable of stimulating the formation of haemoglobulin | in vitro stability [5]: far less stable | mean corpuscular hemoglobin (Babesia canis [6]; day 5, experimental animals): statistically significantly increased | mean corpuscular volume (Babesia canis [6]; day 5, experimental animals): statistically significantly increased | clinical improvement (Babesia canis [6]; experimental group): definite clinical improvement | deaths (Babesia canis [6]; experimental group, 50 mg/l in infusions, two died in control group): none | reticulocyte count response (Babesia canis [6]; experimental vs control): responded quicker | normablast count profile (Babesia canis [6]; first 3 days, continuous downward trend in controls): inverse trend | alkaline phosphatase values (Babesia canis [6]; serum, day 1 to day 3, decreased in controls): large increase | effectiveness to counteract B6 depletion ([7]; compared with PN, also patients who do not respond to PN): substantially more effective than PN | intracellular PLP level (fibroblast cell cultures; extracellular PL concentration 60 nM): 12 nmol/g cell protein | intracellular PLP level, maximum value (fibroblast cell cultures; extracellular PL concentration 600 nM): 120 nmol/g cell protein | cellular uptake (fibroblast cell cultures; further increase of extracellular concentration): saturable process | effect of extracellular vitamer on intracellular PLP level (fibroblast cell cultures; relative effectiveness of PL and PN): more effective than PN | difference in survival rate ([8]; PL-supplemented vs control, 12 h): statistically significant difference in survival rate | survival time ([8]; individual rat, 0.3 ml i/v 1 h before and 0.5 ml i/p after challenge, 12h = survived full period): 1 h and 3 h (3×) and 12 h (2×)

Cc1ncc(COP(=O)(O)O)c(C=O)c1O [PLP, pyridoxal phosphate]
protein (albumin) binding compared with PL (albumin): substantially more prone to becoming protein (albumin) bound than PL | accumulation of extracellular PLP by the cells (fibroblast cell cultures): not accumulated by the cells | radioactivity in the intracellular fraction (fibroblast cell cultures; incubation with radioactive PLP): very little radioactivity

Cc1ncc(CO)c(CN)c1O [PM, pyridoxamine]
response compared with PN (PN-oxidase deficiency): respond much more satisfactorily

Cc1ncc(CO)c(CO)c1O [PN, pyridoxine]
side effects at high bolus dosage ([1]; high dosage levels (e.g. 200-400 mg daily)): produces side effects | lipid lowering effect (lipid metabolism): only a weak lipid-lowering and regulating agent | plasma half-life [9]: about 12 minutes | conversion of pyridoxine into pyridoxal and its phosphate [10]: incapable of converting PN into PLP or PL | conversion of pyridoxine into pyridoxal and its phosphate ([10]; listed as pyridoxine): incapable of converting pyridoxine into pyridoxal | dosage necessary for effect in PMS / estrogen side effects ([11]; bolus doses, daily): 200 to 400 mg/day | effect on Tryp. metabolism and associated clinical symptoms ([11]; oral, OC users): repeatedly shown to normalise Tryp. metabolism | increment in plasma PLP, generally [7, 18]: less than 10 nM | increment in plasma PLP, occasionally [7, 18]: less than 1 nM | slow responders among persons studied [12]: Approximately 20% | rate of increase of intracellular PLP level (fibroblast cell cultures; PN vs PL as extracellular source): increased much more slowly (and in a time dependent manner) | effect of high concentrations on intracellular PLP accumulation (fibroblast cell cultures; high concentrations of PN with PL): suppress intracellular PLP accumulation | response rate in pyridoxine-responsive anemias [13]: fewer than half of the cases

NCCCCNCCCN [spermidine]
inhibition of PLP-specific phosphatases [14]: inhibited

NCCCNCCCCNCCCN [spermine]
inhibition of PLP-specific phosphatases [14]: inhibited
